Test results from article PMC11253539, “Structural and mechanistic insights into the transport of aristolochic acids and their active metabolites by human serum albumin” (The Journal of Biological Chemistry, 2024).
“And” between values parts separate entries of the source, which are not always exact repeats. Identical values can stand only once. Like-named read-outs stand apart in the source and are kept apart here.

Legend:
HSA (defatted HSAA3782) = biological target: T1, HSA (defatted HSAA3782) (Homo sapiens, UniProt P02768); experiment: Isothermal titration calorimetry of AA-HSA interactions; type: binding; conditions: for Ka (macroscopic association constant), Site 1 / Ka (macroscopic association constant), Site 2 / Ka (KA1), site 1 / Ka (KA2), site 2 / Kd: two-site model; for Ka (KA1), site 1: site 1, 25 °C; for Ka (KA2), site 2: site 2, 25 °C; for ΔG°, Site 1 / ΔG°, Site 2: ΔG° = −RTlnKa, T = 298 K
T1 construct: two human serum albumin (HSA) samples derived from pooled human plasma; purchased Sigma Aldrich A3782; host or cells: pooled human plasma
T1 sequence (P02768 25-609): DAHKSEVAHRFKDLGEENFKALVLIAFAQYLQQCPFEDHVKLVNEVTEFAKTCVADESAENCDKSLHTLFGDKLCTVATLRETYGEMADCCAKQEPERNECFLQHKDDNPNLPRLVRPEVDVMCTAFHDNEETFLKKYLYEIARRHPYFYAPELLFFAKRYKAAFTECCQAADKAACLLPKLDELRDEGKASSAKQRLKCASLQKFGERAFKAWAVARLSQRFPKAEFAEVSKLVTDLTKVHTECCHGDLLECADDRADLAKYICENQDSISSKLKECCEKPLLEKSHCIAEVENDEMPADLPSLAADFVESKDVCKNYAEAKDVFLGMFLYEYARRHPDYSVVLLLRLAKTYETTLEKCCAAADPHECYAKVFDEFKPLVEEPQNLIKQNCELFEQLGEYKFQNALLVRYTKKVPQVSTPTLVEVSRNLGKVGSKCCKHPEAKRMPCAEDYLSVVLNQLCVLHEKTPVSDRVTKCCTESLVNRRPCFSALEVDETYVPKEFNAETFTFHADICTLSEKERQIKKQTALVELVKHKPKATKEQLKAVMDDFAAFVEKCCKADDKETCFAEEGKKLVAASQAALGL
Excerpt: We have assessed the binding affinities of AA-I and AA-II for HSAA3782 by conducting a series of ITC experiments. […] An initial analysis of the AA-HSA binding isotherms using conventional fitting programs provides a reasonable estimate for the binding stoichiometry of two AA ligands per HSA molecule. […] Given the challenges associated with baseline assignments, we subsequently employed the NITPIC/SEDPHAT/GUSSI software suite ([60]) to ensure unambiguous analysis of the binding isotherms. Singular value decomposition yields baseline-corrected association data that are analyzed via a two-site binding model to derive macroscopic affinities for AA-HSA interactions in accordance with the following relation: A+B+B↔[AB]+B↔ABB where A represents the HSA macromolecule and B represents ligand AA-I or AA-II. This binding model implies that both sites are occupied with all possible ligation states coexisting in equilibrium.
Binding parameters for the association of defatted HSAA3782 with AA-I and AA-II were determined calorimetrically employing a MicroCal VP-ITC instrument (Malvern Panalytical). Protein stock solutions (0.5–1.5 mM) were prepared by BME reduction to disrupt potential CyS34-CyS34 dimers and dialyzed against three 500 ml exchanges of 10 mM sodium phosphate buffer (pH 7.5). Aliquots of the respective AA ligand stocks were dissolved in protein dialysate and the final DMSO concentration adjusted to 2%. The HSA standard was prepared by diluting an appropriate aliquot in dialysate containing 2% DMSO to match the syringe solution contents. Each ITC experiment consists of thirty consecutive 10.0 μl injections during which the reaction heat is monitored and integrated over a 5-min interval under constant stirring conditions. The experimental protocol has been designed to ensure that there is at least a 15-fold excess of either AA-I or AA-II (75–200 μM) in the titration syringe relative to the initial HSA concentration (5–10 μM) in the reaction cell.
Binding isotherms acquired at 25 °C were generated by recording the integrated reaction heats normalized for AA concentration versus ligand:protein ratio. […] We subsequently applied the NITPIC/SEDPHAT/GUSSI suite of software programs ([60], [88]) to ensure unbiased baseline assignments and peak integrations that facilitated selection of an appropriate binding model to characterize this protein-ligand system. The SEDPHAT program affords significant flexibility by allowing implicit and explicit uncertainty corrections that facilitate assessment of incompetent binding species in the protein and/or ligand. A nonlinear least squares analysis of the resultant profiles invoking a symmetric two-site binding model yields an optimal fit of the isotherms and requisite macroscopic parameters for AA-HSA interactions.

[1] = biological target: T2, HSA (HSAA3782 and HSAA8763 mercaptoalbumins) (Homo sapiens, UniProt P02768); experiment: HSA Trp214 fluorescence quenching assay; type: binding
T2 construct: two human serum albumin (HSA) samples derived from pooled human plasma; purchased Sigma Aldrich A3782; A8763; host or cells: pooled human plasma
T2 sequence (P02768 25-609): as above
Excerpt: Ligand-induced quenching of the intrinsic HSA fluorescence has been assessed by monitoring a single Trp^214 residue located within the IIA binding cavity to derive equilibrium dissociation constants (KD) for numerous endogenous and exogenous molecules including aristolochic acids ([51], [52]). […] Addressing this deficiency, we prepared mercaptoalbumins from HSAA3782 and HSAA8763, consisting of fatty acid-free and limited fatty acid-containing HSA, respectively. We subsequently employed these well-defined HSA samples to conduct comparative fluorescence quenching studies in the presence of AA-I, AA-II, and their respective metabolites while concurrently evaluating the impact of fatty acid content on relative binding affinities.
Equilibrium fluorescence spectra of monomeric HSA samples were collected on an ISS PC1 photon counting spectrophotometer. An excitation wavelength of 295 nm was employed for HSAA3782 and HSAA8763 to selectively monitor tryptophan and avoid contributions of tyrosine residues. The excitation and emission slits were set to 1 nm and 2 nm, respectively. Prior to initiating the experiment, a stock solution of each AA compound (i.e., AA-I, AA-II, AL-I-NOH, AL-II-NOH, AL-I-NOAc. and AL-I-NOSO3) was prepared in DMSO by serial dilution to a 100-fold excess of their final concentration employed in the quenching experiments. HSA samples were diluted to 0.5, 1.0, and 2.5 μM in 10 mM KPi buffer (pH 7.5) and divided into 1 ml aliquots in Eppendorf tubes. A 10 μl aliquot of each AA compound was added to the HSA solutions to achieve a 0.2 to 50 μM concentration range in 1% DMSO. Each AA-HSA mixture was allowed to equilibrate at room temperature for at least 5 min, transferred to a 10 mm × 5 mm quartz cuvette, and emission spectrum recorded over the wavelength range of 310 to 460 nm employing a 2 nm step interval. Following each measurement, the quartz cuvette was cleaned, and the experiment repeated with the next AA:HSA ratio. […] Peak emission intensities at 340 nm were employed to construct fluorescence titration profiles for each AA compound.
Fluorescence titration profiles of the HSA quenching assays were generated using SigmaPlot 13.0. When applicable, the mean and standard deviations obtained from 3 to 5 independent measurements are reported. […] Invoking the SigmaPlot software suite, we applied the following binding model ([87]): F=Ffree−(Ffree−Fbound)∗[…] where F represents the fluorescence signal observed at each ligand concentration (Lt) and Pt is the total protein concentration. Upon fitting, one obtains values of Ffree and Fbound that correspond to the fluorescence of unbound and fully bound HSA, respectively. The number of binding sites and their respective affinities has been determined for AA-I and AA-II interactions with HSA via application of isothermal titration calorimetry as described in the following section.

HSA = system: HSA; parameters: method as in PMID 16413837; conditions: numerous binding sites; cited from earlier work
[2] = ITC, Site 1, 10 mM NaPO4 pH 7.5, 25 °C
[3] = ITC, Site 2, 10 mM NaPO4 pH 7.5, 25 °C
[4] = fatty acid-containing HSA, mean ± SD of 3 to 5 measurements, 10 mM KPi pH 7.5, read-out: KDapp (HSAA8763)
[5] = fatty acid-free HSA, mean ± SD of 3 to 5 measurements, 10 mM KPi pH 7.5, read-out: KDapp (HSAA3782)

Row | SMILES | Ka (macroscopic association constant), Site 1 (HSA (defatted HSAA3782); [2]) | Ka (macroscopic association constant), Site 2 (HSA (defatted HSAA3782); [3]) | Ka (KA1), site 1 (HSA (defatted HSAA3782); ITC) [M⁻¹] | Ka (KA2), site 2 (HSA (defatted HSAA3782); ITC) [M⁻¹] | ΔG°, Site 1 (HSA (defatted HSAA3782)) [kcal/mol] | ΔG°, Site 2 (HSA (defatted HSAA3782)) [kcal/mol] | Kd [1, 4] [nM] | Kd [1, 5] [nM] | other results
1 | COc1cccc2c1cc([N+](=O)[O-])c1c(C(=O)O)cc3c(c12)OCO3 [AA-I, aristolochic acid I] | 1.5 10^6 M^−1 and 1.50 ± 0.18 10^6 M^−1 | 0.5 10^6 M^−1 and 0.54 ± 0.04 10^6 M^−1 | 1.5e+06 | 540000 | -8.41 ± 1.00 | -7.82 ± 0.58 | – | – | Kd (HSA (defatted HSAA3782); KD, Site 1, ITC, Site 1, 10 mM NaPO4 pH 7.5, 25 °C): 690 ± 80 nM; Kd (HSA (defatted HSAA3782); KD, Site 2, ITC, Site 2, 10 mM NaPO4 pH 7.5, 25 °C): 1870 ± 120 nM; Kd [1]: 430 ± 30 nM
2 | O=C(O)c1cc2c(c3c1c([N+](=O)[O-])cc1ccccc13)OCO2 [AA-II, aristolochic acid II] | 0.84 ± 0.07 10^6 M^−1 | 0.90 ± 0.10 10^6 M^−1 | 840000 | 900000 | -8.10 ± 0.67 | -8.12 ± 0.82 | 360 ± 30 | 630 ± 100 | association constant, first site (HSA (defatted HSAA3782); ITC, first of two sites, as given in abstract): 8.4 10^5 M^−1; association constant, second site (HSA (defatted HSAA3782); ITC, second of two sites, as given in abstract): 9.0 10^5 M^−1; Kd (HSA (defatted HSAA3782); ITC, Site 1, 10 mM NaPO4 pH 7.5, 25 °C, read-out: KD, Site 1): 1190 ± 190 nM; Kd (HSA (defatted HSAA3782); ITC, Site 2, 10 mM NaPO4 pH 7.5, 25 °C, read-out: KD, Site 2): 1110 ± 110 nM
3 | COc1cccc2c1cc1c3c(cc4c(c32)OCO4)C(=O)N1OC(C)=O [AL-I-NOAc] | – | – | – | – | – | – | 590 ± 70 | 670 ± 130 | –
4 | COc1cccc2c1cc1c3c(cc4c(c32)OCO4)C(=O)N1O [AL-I-NOH, N-hydroxyaristolactam I] | – | – | – | – | – | – | 740 ± 60 | 650 ± 60 | –
5 | CCCCCCCCCCCCCC(=O)O [myristic acid] | – | – | – | – | – | – | – | – | affinities for HSA binding sites (HSA): 10^4 to 10^7 M^−1
